Marks after values point to notes of the source that are not given here.
Key:
[1] = system: MPTP-treated squirrel monkeys; test: motor behaviour rating of MPTP-treated squirrel monkeys; format: in vivo
Description: (§1) In vivo experiments with GM1 were carried out on 15 (male or female) squirrel monkeys and 4 cynomolgus monkeys.
(§2) The monkeys were administered MPTP saline solution after being anaesthesized i.m. with ketamine HCl 5 mg/kg, as follows:
2 mg/kg/dose, i.m. (squirrel monkeys).
(§3) MPTP was administered every third day until complete manifestation of parkinsonian motor symptomatology was obtained, i.e. akinesia, lack of responsiveness to stimulation, inability to climb, to feed autonomously, and to groom. Thirty points min. (as will be defined in the explanation of FIG. 1) had to be obtained during the 48-60 hours following the last MPTP administration; then animals in pairs were subdivided at random into two treatment groups, i.e. treatment with GM1 or with saline solution. […]
(§4) In particular, the following functions were recorded: overall activity, ability to climb, locomotion/gait, upper and lower limb movements, detailed motor ability, bradykinesia/akinesia, dyskinesia/dystonia, carriage, tremor, balance, grooming ability, sudden immobility during movements, and ability to feed. […]
(§5) FIGS. 1 and 2 are now being considered in detail. […] Columns represent the average points (±S.D.); normal point is 0, MPTP points are the points recorded after the last MPTP injection but prior to the administration of associated GM1-saline solution. […]

[2] = system: MPTP-treated cynomolgus monkeys; test: motor behaviour rating of MPTP-treated cynomolgus monkeys; format: in vivo; conditions: GM1 15 mg/kg/day i.m.; p<0.05 vs saline solution
Description: as §1, §2
0.35 mg/kg/dose, i.v. (cynomolgus monkeys)
as §3, §4, §5

[3] = system: MPTP-treated squirrel monkeys; test: food grasping test in MPTP-treated squirrel monkeys; format: in vivo; conditions: GM1 30 mg/kg/day i.m., investigation end
Description: Tests on squirrel monkeys, which concerned simple motor functions (e.g. capability of grasping food placed in deep containers), were intended to determine the response time and evaluate limb functional use. In particular, monkeys were trained to grasp raisins from a Plexiglas platform accommodating 9.5 mm dia. wells. The time taken to start grasping and the number of raisins grasped in a 6-minute time limit were recorded. All the aforesaid tests were carried out before the first meal of the day.
Normal monkeys started response on sighting the food container.
Normal squirrel monkeys succeeded in grasping 100% food. Soon after MPTP administration, all monkeys were endangered and grasped approx. 15% food. Within the third week of treatment, the monkeys treated with GM1—compared with those treated with saline solution—grasped a higher amount of food. At the investigation end, the former grasped 100% food whereas the latter grasped only 25% food (*p<0.05).

[4] = system: MPTP-treated cynomolgus monkeys; test: post-mortem striatal dopamine and metabolite levels by HPLC, cynomolgus monkeys; format: in vivo; conditions: MPTP/GM1, average (S.D.)
Description: Post-mortem neurochemical examinations of striatal tissue were carried out for the determination of dopamine (DA) and relevant metabolites, e.g. homovanillic acid (HVA), and […] (DOPAC). DA and relevant metabolites striatal levels were quantified by electrochemical […] high pressure liquid chromatography (HPLC) (Schneider J. S., Brain Res., 24, 534, 1990).

cerebellar granule cells = test: TOPA neurotoxicity in cerebellar granule cell cultures, MTT assay; format: cell-based; conditions: for Neuronal survival (%): control = 100%
Description: Granular cell cultures were obtained from 8-day rat cerebella and cultured (3×10^6 cells) on plates coated with poly-L-lysine substrate according to Skaper et al. (Skaper S. D. et al.: “Culture and use of primary and clonal neural cells”, Methods in Neurosciences, Ed. by P. M. Conn, Vol. 2, pp. 17-33, Academic Press, Orlando, 1990).
Twenty-four hours later, cytosine arabinoside (10 μM) was added to inhibit non-neuronal proliferation. Cerebellar granule cells were used 10-12 days later without changing the medium.
Cells were incubated with TOPA either for 40 minutes (100 μM acute exposure) or for 24 h (10 μM prolonged exposure).
Treatment with GM1, AGF2, AGF4 (100 μM) and LIGA 20 (1-30 μm) was carried out as follows:
2-hour pretreatment before acute incubation with TOPA;
cotreatment only with LIGA 20 before acute incubation with TOPA;
pretreatment with/without cotreatment before (100 μM for 2 h) and/or during (100 μM for 24 h) prolonged incubation with TOPA. TOPA cytotoxicity was determined by evaluating cellular survival, and more precisely:
MTT colorimetric assay of cerebellar neurons, as described by Mosmann (Mosmann T.: “Rapid colorimetric assay for cellular growth and survival: application to proliferation and cytotoxicity assays”, J. Immunol. Meth., 65, 55-63, 1983).
Cytotoxicity is expressed as per cent cellular survival.
The results of the two tests (in triplicate) were analysed statistically according to Duncan's test. A brief description of same is reported below:
In FIG. 3 the dose-dependent protective effect of LIGA20 against TOPA-induced death of cultured cerebellar granule cells is represented. Cells were exposed concurrently to 100 μM TOPA and 1-30 μM LIGA20 or 200 μM GM1 in Locke's solution for 45 minutes (24° C.), washed and returned to their original medium. Survival was assessed 24 h later by the MTT method. Means±S.E.M. (n=9, 3 experiments). TOPA ( ), LIGA 20 ( ), GM1 ( ).
In vitro granule cells at the 11th day were incubated as indicated above. In the 40-minute exposure to TOPA, GM1 (100 μM) was used in 2-h pretreatment only. In the […] exposure to TOPA, GM1 (100 μM) was used either in 2-h pretreatment only or in 2-h pretreatment and in cotreatment with TOPA. The values are expressed with reference to the corresponding control cultures (=100%) and are an average (±S.D.) of two determinations, each being carried out in triplicate.

monosialoganglioside [GM1]
motor behaviour at the investigation end ([1]; GM1 30 mg/kg/day i.m., p<0.01 vs saline solution): almost normal behaviour
recovered motor behaviour ([1]; GM1 chronic i.m. administration, end of 6-8 weeks' investigation, MPTP monkeys, species not separated (FIG. 1)): 86-89%
motor behaviour at the investigation end [2]: almost normal behaviour
response start time in food grasping test ([3]; p<0.002 vs saline solution): started response almost immediately
food per cent amount grasped during the test ([3]; saline solution 25%, normal 100%): 100%
DA striatal level ([4]; Dorsolateral caudatum): 4.4(0.6)* ng/mg protein
DOPAC striatal level ([4]; Dorsolateral caudatum): 2.7(0.3)* ng/mg protein
HVA striatal level ([4]; Dorsolateral caudatum): 55.9(12.0)* ng/mg protein
DA striatal level ([4]; Dorsolateral putamen): 3.7(0.9) ng/mg protein
DOPAC striatal level ([4]; Dorsolateral putamen): 2.1(0.8)* ng/mg protein
HVA striatal level ([4]; Dorsolateral putamen): 51.9(9.4)* ng/mg protein
DA striatal level ([4]; Ventromedial caudatum): 12.9(2.8)* ng/mg protein
DOPAC striatal level ([4]; Ventromedial caudatum): 6.6(0.7)* ng/mg protein
HVA striatal level ([4]; Ventromedial caudatum): 60.9(6.9)* ng/mg protein
DA striatal level ([4]; Ventromedial putamen): 11.2(4.1)* ng/mg protein
DOPAC striatal level ([4]; Ventromedial putamen): 7.1(3.2)* ng/mg protein
HVA striatal level ([4]; Ventromedial putamen): 100.3(11.9)* ng/mg protein
Neuronal survival (%) (cerebellar granule cells; GM1 100 μM 2-h pretreatment and cotreatment, TOPA 10 μM 24-h exposure): 75.4 ± 5.5 (b) %
Neuronal survival (%) (cerebellar granule cells; GM1 100 μM 2-h pretreatment only, TOPA 10 μM 24-h exposure): 57.0 ± 6.5 (a) %
Neuronal survival (%) (cerebellar granule cells; GM1 100 μM 2-h pretreatment only, then TOPA 100 μM 40-minute exposure): 72.4 ± 5.8 (a) %
protection against the acute toxicity of TOPA in cotreatment (cerebellar granule cells; GM1 up to 200 μM, cotreatment with 100 μM TOPA for 45 minutes (FIG. 3)): not active
